Tests used:
[1] = tested on: Hepa1c1c7 cell line; details: HCV mixed with tCA (mouse hepatocytes)
Excerpt: (§1) For production of enveloped virus-infected cell line models, HBV (1×10^6 copies/ml/well of HBV) isolated in Example 1 above was mixed with 100 μmol/L of taurochenodeoxycholic acid (hereinafter referred to as ‘tCDCA’), and HCV (1×10^6 IU/ml/well of HCV) isolated in Example 1 above was mixed with tCDCA or taurocholic acid (hereinafter referred to as ‘tCA’). Here, tCA was mixed with HCV and used to infect mouse hepatocytes; and tCDCA was used in all other cases.
(§2) A cell line (HepG2, Huh-7, A549, A-498, MDA-MB-231, Jurkat, HeLa, Hepa1c1c7, EL4, H4-II-E, LA-4, LC540, or RAG cell line) at 5×10^6 cells/ml was dispensed into each well of a 6-well plate, and culture was performed for 24 hours. Then, the tCDCA or tCA solution mixed with HBV or HCV was added thereto, and culture was further performed for 24 hours. Here, as a control, a group, to which only HBV or HCV was added without the tCDCA or tCA solution, was used. […] Finally, the cell culture medium was treated with 100 μmol/L of tCDCA or tCA, and culture was further performed for 3 days, thereby producing a virus-infected cell line model (hereinafter referred to as “infected cell line”).
(§3) The levels of HCV core and HCV RNA present were measured in each of the HCV-infected cell lines produced and the culture medium collected therefrom. […]

[2] = tested on: H4-II-E cell line; details: HCV mixed with tCA
Excerpt: as §1, §2, §3

[3] = tested on: Jurkat cell line; assay: HCV infection of Jurkat cell line with tCDCA-mixed HCV; format: cell-based, human
Protocol: (§5) The levels of HCV core and HCV RNA present were measured in each of the HCV-infected cell lines produced and the culture medium collected therefrom. Specifically, measurement of HCV RNA was performed by requesting a specialized inspection agency (Biogeno Korea Co., Ltd., Korea) that utilizes the Roche's COBAS TaqMan system. Here, as a control, a group treated with only HCV without a bile acid derivative was used.

[4] = tested on: A498 cell line; assay: HCV infection of A498 cell line with tCDCA-mixed HCV; format: cell-based, human
[5] = tested on: EL4 cell line; assay: HBV infection of EL4 cell line with tCDCA-mixed HBV; format: cell-based, mouse; details: HBV mixed with 100 μmol/L tCDCA
Protocol: (§4) In addition, […] was performed using an anti-HBcAg antibody, to measure a level of HBcAg present. Specifically, 100 μl/well of anti-HBcAg antibody (10E11) (cat no. MA1-7608; Thermo Fisher, USA) was added to a micro ELISA plate, and the reaction was allowed to proceed at 4° C. overnight. Then, 200 μl/well of 1× ELISA/ELISPOT Diluent (Invitrogen, USA) was additionally added thereto, and the reaction was allowed to proceed for 1 hour. Each of the HBV-infected cell lines produced was dispensed into each well, in which the reaction had been completed, and the reaction was allowed to proceed for 2 hours. Then, the anti-HBcAg antibody (10E11) diluted in a ratio of 1:30 with 100 μl of 1× ELISA/ELISPOT Diluent was added to the plate, and the reaction was allowed to proceed for 1 hour. Then, the additional reaction with 100 μl of HRP-conjugated anti-rabbit IgG was allowed to proceed for 30 minutes. Here, as a positive control, PLC/PRF5 cell line (human liver-derived cell line that releases HBV surface antigen) was used, and levels of HBsAg and HBcAg present therein were measured.

[6] = tested on: LC540 cell line; assay: HCV infection of LC540 cell line with tCDCA-mixed HCV; format: cell-based, rat
Protocol: as §5

[7] = tested on: A549 cell line; assay: HCV infection of A549 cell line with tCDCA-mixed HCV; format: cell-based, human
[8] = tested on: HepG2 cell line; assay: HBV infection of HepG2 cell line with tCDCA-mixed HBV; format: cell-based, human; details: HBV mixed with 100 μmol/L tCDCA
Protocol: as §4

[9] = tested on: HepG2 cell line; assay: HCV infection of HepG2 cell line with tCDCA-mixed HCV; format: cell-based, human
[10] = tested on: MDA-MB-231 cell line; assay: HCV infection of MDA-MB-231 cell line with tCDCA-mixed HCV; format: cell-based, human
[11] = tested on: A498 cell line; assay: HBV infection of A498 cell line with tCDCA-mixed HBV; format: cell-based, human; details: HBV mixed with 100 μmol/L tCDCA
Protocol: as §4

[12] = tested on: MDA-MB-231 cell line; assay: HBV infection of MDA-MB-231 cell line with tCDCA-mixed HBV; format: cell-based, human; details: HBV mixed with 100 μmol/L tCDCA
Protocol: as §4

[13] = tested on: Jurkat cell line; assay: HBV infection of Jurkat cell line with tCDCA-mixed HBV; format: cell-based, human; details: HBV mixed with 100 μmol/L tCDCA
Protocol: as §4

[14] = tested on: Huh-7 cell line; assay: HCV infection of Huh-7 cell line with tCDCA-mixed HCV; format: cell-based, human
Protocol: as §5

[15] = tested on: EL4 cell line; assay: HCV infection of EL4 cell line with tCDCA-mixed HCV; format: cell-based, mouse
Protocol: as §5

[16] = tested on: H4-II-E cell line; assay: HBV infection of H4-II-E cell line with tCDCA-mixed HBV; format: cell-based, rat; details: HBV mixed with 100 μmol/L tCDCA
Protocol: as §4

[17] = tested on: Hepa1c1c7 cell line; assay: HBV infection of Hepa1c1c7 cell line with tCDCA-mixed HBV; format: cell-based, mouse; details: HBV mixed with 100 μmol/L tCDCA
Protocol: as §4

[18] = tested on: LC540 cell line; assay: HBV infection of LC540 cell line with tCDCA-mixed HBV; format: cell-based, rat; details: HBV mixed with 100 μmol/L tCDCA
Protocol: as §4

[19] = tested on: HeLa cell line; assay: HBV infection of HeLa cell line with tCDCA-mixed HBV; format: cell-based, human; details: HBV mixed with 100 μmol/L tCDCA
Protocol: as §4

[20] = tested on: RAG cell line; assay: HBV infection of RAG cell line with tCDCA-mixed HBV; format: cell-based, mouse; details: HBV mixed with 100 μmol/L tCDCA
Protocol: as §4

[21] = tested on: Huh-7 cell line; assay: HBV infection of Huh-7 cell line with tCDCA-mixed HBV; format: cell-based, human; details: HBV mixed with 100 μmol/L tCDCA
Protocol: as §4

C[C@H](CCC(=O)NCCS(=O)(=O)O)[C@H]1CC[C@H]2[C@@H]3[C@H](O)C[C@@H]4C[C@H](O)CC[C@]4(C)[C@H]3C[C@H](O)[C@]12C [tCA, taurocholic acid]
HCV RNA (IU/ml) [1]: 3430 IU/ml
HCV RNA (IU/ml) [2]: 197.33 IU/ml

C[C@H](CCC(=O)NCCS(=O)(=O)O)[C@H]1CC[C@H]2[C@@H]3[C@H](O)C[C@@H]4C[C@H](O)CC[C@]4(C)[C@H]3CC[C@]12C [tCDCA, taurochenodeoxycholic acid]
HCV RNA (IU/ml) [3]: 3326.667 IU/ml
HCV RNA (IU/ml) [4]: 610 IU/ml
HBV DNA (copies/ml) [5]: 673,000 ± 60,053 copies/ml
HBsAg (Index) [5]: 192.7 ± 30.60 Index
HBcAg (Index) ([5]; FACS): 66.9%
HCV RNA (IU/ml) [6]: 21.7 IU/ml
HCV RNA (IU/ml) [7]: 4550 IU/ml
HBV DNA (copies/ml) [8]: 3,590,000 ± 1,010,000 copies/ml
HBsAg (Index) [8]: 474.70 ± 176.30 Index
HBcAg (Index) ([8]; FACS): 61.6%
HCV RNA (IU/ml) [9]: 85.233 IU/ml
HCV RNA (IU/ml) [10]: 605 IU/ml
HBV DNA (copies/ml) [11]: 73,500 ± 23,292 copies/ml
HBsAg (Index) [11]: 5.12 ± 0.19 Index
HBcAg (Index) ([11]; FACS): 67.1%
HBV DNA (copies/ml) [12]: 116 copies/ml
HBsAg (Index) [12]: 169 Index
HBcAg (Index) ([12]; FACS): 87.4%
HBV DNA (copies/ml) [13]: 868,000 ± 88,963 copies/ml
HBsAg (Index) [13]: 1081 ± 329 Index
HBcAg (Index) ([13]; FACS): 37.5%
HCV RNA (IU/ml) [14]: 628.066 IU/ml
HCV RNA (IU/ml) [15]: 1669 IU/ml
HBV DNA (copies/ml) [16]: 73,000 ± 51,929 copies/ml
HBsAg (Index) [16]: 22.73 ± 4.39 Index
HBcAg (Index) ([16]; FACS): 32.6%
HBV DNA (copies/ml) [17]: 7,036,667 copies/ml
HBsAg (Index) [17]: 508.26 ± 107.6 Index
HBcAg (Index) ([17]; FACS): 77.1%
HBV DNA (copies/ml) [18]: 149,000 ± 29,866 copies/ml
HBsAg (Index) [18]: 3.06 ± 0.44 Index
HBV DNA (copies/ml) [19]: 359 copies/ml
HBsAg (Index) [19]: 61.35 Index
HBcAg (Index) ([19]; FACS): 89.6%
HBV DNA (copies/ml) [20]: 11,700 (622, 000) copies/ml
HBsAg (Index) [20]: 21 (744) Index
HBcAg (Index) ([20]; FACS): 76.6%
HBV DNA (copies/ml) [21]: 89,000 ± 1,836 copies/ml
HBsAg (Index) [21]: 26.02 ± 5.97 Index
HBcAg (Index) ([21]; FACS): 69.8%

— US20220112515A1, “Method for Producing Virus-Infected Cell Line and Animal Model” (INDUSTRY-ACADEMIC COOPERATION FOUNDATION, YONSEI UNIVERSITY, priority 2018, published 2022)
